The source of these data is the supplement of paper PMC10331698.

Holding throughout (assay): level (log10 ratio to DMSO vehicle control); higher = higher biomarker level / cell amount than vehicle control
Compound in assay [1]: C=C(C)C(=O)OCC(F)(F)C(F)(F)C(F)(F)F [2,2,3,3,4,4,4-Heptafluorobutyl methacrylate]
The settings on record: in DMSO. On the procedure:
(§1)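 BioMAP Diversity Plus panel of 12 human primary cell co-culture systems (3C, 4H, LPS, SAg, BT, BF4T, BE3C, CASM3C, HDF3CGF, KF3CT, MyoF, Mphg). Compounds were added 1 h before stimulation and left for 24 h (MyoF 48 h; BT 72 h for soluble read-outs or 6 d for IgG). Biomarkers were read by ELISA, cytotoxicity by SRB, PBMC viability and proliferation by Alamar Blue. Each well value was divided by the mean of 8 DMSO control wells on the same plate and log10 transformed; duplicate blinded samples were tested at 4 concentrations.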

Compound in assay [2]: C=CC(=O)OCC(F)(F)C(F)(F)C(F)(F)C(F)(F)COC(=O)C=C [1H,1H,6H,6H-Perfluorohexane-1,6-diol diacrylate]
The following applies: 6700 nM; in DMSO. On the procedure: as §1

Compound in assay [3]: Cc1ccc(S(=O)(=O)OCC(F)(F)C(F)(F)C(F)(F)C(F)(F)C(F)(F)C(F)F)cc1 [1H,1H,7H-Perfluoroheptyl 4-methylbenzenesulfonate]
The following applies: in DMSO. How it is done:
as §1

Compound in another assay: O=C(O)C(F)(F)C(F)(F)C(F)(F)C(F)(F)C(F)(F)C(F)(F)C(F)(F)F [Perfluorooctanoic acid]
The settings on record: in DMSO. How it is done: as §1

Compound in assay [4]: O=S(=O)(OCC(F)(F)F)C(F)(F)C(F)(F)C(F)(F)C(F)(F)F [2,2,2-Trifluoroethyl perfluorobutanesulfonate]
The settings on record: in DMSO. On the procedure: as §1

Compound in the next assay: OC(C(F)(F)F)(C(F)(F)F)C(O)(C(F)(F)F)C(F)(F)F [Perfluoropinacol]
The settings on record: in DMSO. How it is done: as §1

Compound in assay [5]: OCC(F)(F)C(F)(F)C(F)(F)C(F)(F)C(F)(F)C(F)(F)C(F)(F)C(F)(F)CO [1H,1H,10H,10H-Perfluorodecane-1,10-diol]
The following applies: in DMSO. How it is done:
as §1

Compound in assay [6]: OCCC(F)(F)C(F)(F)C(F)(F)C(F)(F)C(F)(F)C(F)(F)C(F)(F)C(F)(F)F [8:2 Fluorotelomer alcohol]
The following applies: 6700 nM; in DMSO. How it is done:
as §1

± gives the standard deviation of the averaged measurements.

As for SAg:CXCL8/IL-8, the “level (log10)” value in assay [1] (6700 nM) is -0.003 ± 0.061; in assay [1] (20000 nM), -0.002 ± 0.075; in assay [1] (60000 nM) it was 0.006 ± 0.02; in assay [2], -0.102 ± 0.011; in assay [3] (6700 nM), 0.005 ± 0.0014; in assay [3] (20000 nM), 0.0025 ± 0.0064. Also, the “level (log10)” value in assay [3] (60000 nM) is 0.0265 ± 0.033; in the assay with Perfluorooctanoic acid (6700 nM) it was 0.015 ± 0.016; in the assay with Perfluorooctanoic acid (20000 nM), 0.0165 ± 0.028; in the assay with Perfluorooctanoic acid (60000 nM) it was 0.0745 ± 0.029; in assay [4] (6700 nM), 0.0205 ± 0.029; in assay [4] (20000 nM), 0.034 ± 0.024. Further, the “level (log10)” value in assay [4] (60000 nM) is 0.134 ± 0.086; in the assay with Perfluoropinacol (6700 nM) it was 0.0725 ± 0.029; with Perfluoropinacol (20000 nM), -0.139 ± 0.041; in assay [5] (6700 nM), -0.0125 ± 0.037; in assay [5] (20000 nM), -0.01 ± 0.018; in assay [5] (60000 nM) it was -0.051. In assay [6], the “level (log10)” value is -0.0115 ± 0.047.
In the case of LPS:CD141/Thrombomodulin, the “level (log10)” value in assay [1] (6700 nM) was 0.001 ± 0.05; in assay [1] (20000 nM) it was -0.0015 ± 0.005; in assay [1] (60000 nM) it was -0.0185 ± 0.019; in assay [2], -0.0375 ± 0.013; in assay [3] (6700 nM), -0.0115 ± 0.016; in assay [3] (20000 nM), -0.011 ± 0.0085. For the same test system, the “level (log10)” value was -0.007 ± 0.023 in assay [3] (60000 nM); 0.068 ± 0.076 with Perfluorooctanoic acid (6700 nM); 0.0185 ± 0.077 with Perfluorooctanoic acid (20000 nM); 0 ± 0.03 with Perfluorooctanoic acid (60000 nM); -0.0075 ± 0.03 in assay [4] (6700 nM); 0.0145 ± 0.04 in assay [4] (20000 nM). For the same test system, the “level (log10)” value in assay [4] (60000 nM) was 0.067 ± 0.025; with Perfluoropinacol (6700 nM), -0.106 ± 0.028; with Perfluoropinacol (20000 nM), -0.118 ± 0.005; in assay [5] (6700 nM) it was -0.02 ± 0.03; in assay [5] (20000 nM) it was 0.007 ± 0.044; in assay [5] (60000 nM) it was -0.047. In addition, the “level (log10)” value in assay [6] was -0.0605 ± 0.14.
As for BE3C:CXCL8/IL-8, the “level (log10)” value in assay [1] (6700 nM) is 0.016 ± 0.042; in assay [1] (20000 nM), -0.008 ± 0.031; in assay [1] (60000 nM) it was 0.013 ± 0.058; in assay [2], -0.095 ± 0.013; in assay [3] (6700 nM), -0.0345 ± 0.042; in assay [3] (20000 nM), -0.12 ± 0.059. In addition, the “level (log10)” value was -0.126 ± 0.028 in assay [3] (60000 nM); -0.029 ± 0.055 with Perfluorooctanoic acid (6700 nM); -0.0165 ± 0.057 with Perfluorooctanoic acid (20000 nM); -0.0385 ± 0.0035 with Perfluorooctanoic acid (60000 nM); 0.001 ± 0.0071 in assay [4] (6700 nM); -0.0035 ± 0.026 in assay [4] (20000 nM). The “level (log10)” value in assay [4] (60000 nM) was 0.0225 ± 0.021; with Perfluoropinacol (6700 nM), -0.049 ± 0.0014; with Perfluoropinacol (20000 nM) it was -0.203 ± 0.021; in assay [5] (6700 nM) it was -0.078 ± 0.0099; in assay [5] (20000 nM) it was -0.098 ± 0.025; in assay [5] (60000 nM), -0.127. Moreover, the “level (log10)” value in assay [6] is -0.054 ± 0.0042.
Consider BE3C:HLA-DR, for which the “level (log10)” value in assay [1] (6700 nM) was -0.0005 ± 0.015; in assay [1] (20000 nM), 0.006 ± 0.016; in assay [1] (60000 nM), 0.003 ± 0.035; in assay [2] it was -0.048 ± 0.0071; in assay [3] (6700 nM) it was -0.0155 ± 0.005; in assay [3] (20000 nM) it was -0.0195 ± 0.012. For the same test system, the “level (log10)” value in assay [3] (60000 nM) was -0.025 ± 0.0014; with Perfluorooctanoic acid (6700 nM), -0.023 ± 0.0042; with Perfluorooctanoic acid (20000 nM) it was -0.0225 ± 0.023; with Perfluorooctanoic acid (60000 nM), -0.013 ± 0.034; in assay [4] (6700 nM), -0.001 ± 0.011; in assay [4] (20000 nM) it was 0.005 ± 0.0085. The “level (log10)” value is -0.011 ± 0.0014 in assay [4] (60000 nM); -0.0145 ± 0.0064 with Perfluoropinacol (6700 nM); -0.0565 ± 0.019 with Perfluoropinacol (20000 nM); -0.0495 ± 0.019 in assay [5] (6700 nM); -0.174 ± 0.022 in assay [5] (20000 nM); -0.517 in assay [5] (60000 nM). Also, the “level (log10)” value in assay [6] was -0.02.
